“Also recorded” adds a separate entry of the source.
How the values were obtained:
[1] = In vitro release from polymeric implants; type: in vitro ADME; details: for cumulative release over 3 weeks: 37°C
[2] = Tissue curcumin/curcuminoids levels by UPLC-fluorescence; type: in vivo, female A/J mice; details: for concentration at 21 days: female, A/J
[3] = system: DBP-induced lung DNA adducts; experiment: Inhibition of DBP-DNA adducts in lung tissue, 32P-postlabeling; type: in vivo, female A/J mice; details: coated implants, DBP-treated mice, 3 weeks
[4] = system: human lung cancer A549 xenograft; experiment: Effect on tumor xenograft
[5] = parameters: species or system mice; details: mouse, in vivo
[6] = coated implants, PBS + 10% bovine serum
[7] = implants of the individual curcuminoids, 21 days

COc1cc(/C=C/C(O)=C/C(=O)/C=C/c2ccc(O)cc2)ccc1O [curcumin II, demethoxycurcumin]
cumulative release over 3 weeks [1, 6]: 41.8%
concentration at 21 days ([2]; mouse, in vivo, level in brain): 1 ng/g
concentration at 21 days ([2]; mouse, in vivo, level in lung): 1.4 ± 0.4 ng/g

O=C(/C=C/c1ccc(O)cc1)CC(=O)/C=C/c1ccc(O)cc1 [curcumin III, bisdemethoxycurcumin]
cumulative release over 3 weeks [1, 6]: 51.4%
concentration at 21 days ([2]; mouse, in vivo, level in brain): 6.4 ng/g
concentration at 21 days ([2]; mouse, in vivo, level in liver): 5 to 6 ng/g
concentration at 21 days ([2]; mouse, in vivo, level in lung): 49.7 ± 1.3 ng/g

COc1cc(/C=C/C(=O)CC(=O)/C=C/c2ccc(O)c(OC)c2)ccc1O [curcumin I]
level in lung ([2]; implants of the individual curcuminoids, 10% load, 21 days): 6.5 ± 1.6 ng/g lung
level in brain [2, 7]: 1.4 ng/g tissue
level in liver [2, 7]: 5–6 ng/g tissue

Cc1c(-c2cnccn2)ssc1=S [oltipraz, reference compound]
effect on DBP-DNA adduct levels in lung [3]: reduction was statistically significant
lung DNA adducts [3]: 28±7 adducts/10^9 nucleotides
release in PBS alone ([1]; coated implants agitated in PBS alone at 37°C): essentially no release
cumulative release ([1]; coated implants, PBS + 10% bovine serum, after 21 days): about 12%
cumulative release ([1]; coated implants, PBS + 10% bovine serum, after 60 days): ~27%
in vitro release pattern ([1]; coated implants, PBS + 10% bovine serum, over 60 days / eight weeks): almost zero-order kinetics

CC1=C(CO)C(=O)O[C@@H]([C@@H](C)[C@H]2CC[C@H]3[C@@H]4C[C@H]5O[C@]56[C@@H](O)C=CC(=O)[C@]6(C)[C@H]4CC[C@]23C)C1 [withaferin A]
effect on DBP-DNA adduct levels in lung [3]: reduction in the DNA adduct levels
effect on DBP-DNA adduct levels in lung ([3]; listed as Withaferin A): diminished DNA adducts, but it was insignificant
total dose administered via the two implants ([4]; calculated based on the residual amount in the implants): 2.69 mg
effect on A549 xenograft ([4]; given via the implants): significantly inhibited
inhibition of the tumor ([4]; intraperitoneally 8 mg/kg, alternate days): 53%
effect on tumor ([4]; intraperitoneally, lower dose 4 mg/kg (same total dose as implants), 4 mg/kg): ineffective; also recorded: no reduction
body weight at the end of the 8-week study ([4]; via implants vs sham): essentially the same body weight
reduction in the growth of the tumor (tumor volume) ([4]; via implants, two 1.5-cm, 5% load): 51%

curcumin
biochemical parameters of kidney function [5]: No significant differences
effect on body weight [5]: no significant effect
hematological parameters (white blood cells, red blood cells, hemoglobin) [5]: No significant differences
liver enzymes [5]: No significant differences
neutrophils, lymphocytes, monocytes, eosinophils, and basophils [5]: no statistical difference
composition of the three curcuminoids in lung tissue ([2]; mouse, in vivo): essentially the same compositions
ratio of the three curcuminoids in the liver ([2]; mouse, in vivo): 74:18:8

— PMC3462657 (Cancer letters, 2012)
